Test results: patent publication US8226943B2, “Antibodies to notch receptors” (OncoMed Pharmaceuticals, Inc., priority 2008, dated 2012)
Each block holds one substance with its values, some of them ahead of it.

Columns and labels:
human Notch4 = target: T1, human Notch4 (Homo sapiens, UniProt Q99466); test: FACS binding to transiently transfected HEK-293 cells, human Notch4
T1 construct: All Notch constructs were full length; expressed in transfected cells; host or cells: HEK-293, transient, co-transfected with GFP
Experimental: The ability of the 59R1 IgG2 antibody to cross-react with other Notch receptors was determined by FACS assay using HEK-293 cells transiently transfected with the human Notch1, Notch2, Notch3 or Notch4 expression plasmid and green fluorescent protein (GFP) as a transfection control. GFP positive cells indicated expression of the transgene. The 59R1 IgG2 was added to the cells at 2 μg/ml and detected by PE-conjugated goat anti-human Fc gamma specific (Jackson Immunochemicals). All Notch constructs were full length.

[1] = target: T2, human Notch2 EGF deletion and point mutants (Homo sapiens, UniProt Q04721, A388S/H385N/L389N); test: FACS epitope mapping with full-length hNotch2 deletion and point mutants; assay type: binding; details: FACS on point mutants
T2 construct: several point mutants were created within full-length Notch2; expressed in transfected cells; host or cells: HEK-293, transient, co-transfected with GFP
Experimental: (§1) Point mutations were made within EGF10 of Notch2 fusion proteins and binding of 59R1 to each EGF10 mutant was determined by FACS analysis. HEK-293 cells were transiently transfected with the indicated Notch expression plasmid and GFP as a transfection control. GFP positive cells indicated expression of the transgene. The 59R1 Fab antibody was added to the cells at 10 μg/ml and detected by PE-conjugated goat anti-human (Jackson Immunochemicals).
(§2) FACS analysis of HEK-293 cells transiently transfected with the indicated Notch expression plasmid and GFP as a transfection control. GFP positive cells indicate expression of the transgene. Anti-Notch2 (59M70) was added at 20 μg/ml and detected by PE-conjugated goat anti-mouse (Caltag, #3004-4). 59R1 (IgG2) was added to the cells at 2 μg/ml and detected by PE-conjugated goat anti-human Fc gamma specific (Jackson Immunochemicals). Ligand binding was determined by incubation of the cells with human DLL4 extracellular domain (ECD) fused to rabbit IgG constant region at 5 μg/ml and detected by PE-conjugated donkey anti-rabbit.
(§3) A comparison analysis of the EGF 10 regions of human Notch1, Notch2, and Notch4 and the EGF 9 region of human Notch3 (the equivalent of EGF 10 in the other Notch receptors) was performed to determine likely binding sites for 59R1 (FIG. 14A). […] Binding to the mutants was determined by FACS analysis (FIGS. 14B and 14C). […]

[2] = target: T3, human Notch2 EGF deletion and point mutants (Homo sapiens, UniProt Q04721, DEL375-412); test: as above; assay type: binding; details: HEK-293 transiently transfected
T3 construct: several point mutants were created within full-length Notch2; expressed in transfected cells; host or cells: HEK-293, transient, co-transfected with GFP
Experimental: as §1, §2, §3

[3] = tested on: stroma from the xenograft models Colo205, B29, B34, B44, PE13, T1, C8, and PN8; test: TaqMan analysis of stromal gene expression in xenograft models; assay type: in vivo, mice
Excerpt: The expression levels in the stroma from the xenograft models Colo205, B29, B34, B44, PE13, T1 (without estrogen treatment), T1 (with estrogen treatment), C8, and PN8 of selected genes that had been identified in the microarray analysis as being regulated by treatment with 59R1 (heyl, notch3, rgs5, angpt1, and angpt2) were further analyzed by TaqMan® analysis. The results are shown in FIGS. 12A (heyl), 12B (notch3), 12C (rgs5), 12D (angpt1), and 12E (angpt2).

stroma of T1 tumors = test: Microarray gene expression in stroma of treated xenograft tumors, T1; assay type: in vivo, mice; details: 59R1 vs control
murine Notch2 = test: DLL4-Fc induced receptor activation in transfected PC3 cells, murine Notch2; assay type: cell-based, mouse; details: immobilized DLL4-Fc
Experimental: (§4) 59R5 was determined to have similar activity in blocking Notch2 and Notch3 signaling as 59R1. Receptor activation was determined in luciferase-based assays. PC3 tumor cells were transiently transfected with a human or mouse Notch receptor (human Notch2, murine Notch2, human Notch3, or murine Notch3) and […] inducible reporter construct. Transfected cells were incubated with different concentrations of 59R1 or 59R5 antibody in the presence of passively immobilized DLL4-Fc protein. Notch receptor activation was determined by measuring luciferase activity.

murine Notch3 = test: DLL4-Fc induced receptor activation in transfected PC3 cells, murine Notch3; assay type: cell-based, mouse; details: immobilized DLL4-Fc
Experimental: as §4

[4] = each of the various tumor types, relative to control

T3 sequence (Q04721 with tags, fused parts or gaps DEL375-412): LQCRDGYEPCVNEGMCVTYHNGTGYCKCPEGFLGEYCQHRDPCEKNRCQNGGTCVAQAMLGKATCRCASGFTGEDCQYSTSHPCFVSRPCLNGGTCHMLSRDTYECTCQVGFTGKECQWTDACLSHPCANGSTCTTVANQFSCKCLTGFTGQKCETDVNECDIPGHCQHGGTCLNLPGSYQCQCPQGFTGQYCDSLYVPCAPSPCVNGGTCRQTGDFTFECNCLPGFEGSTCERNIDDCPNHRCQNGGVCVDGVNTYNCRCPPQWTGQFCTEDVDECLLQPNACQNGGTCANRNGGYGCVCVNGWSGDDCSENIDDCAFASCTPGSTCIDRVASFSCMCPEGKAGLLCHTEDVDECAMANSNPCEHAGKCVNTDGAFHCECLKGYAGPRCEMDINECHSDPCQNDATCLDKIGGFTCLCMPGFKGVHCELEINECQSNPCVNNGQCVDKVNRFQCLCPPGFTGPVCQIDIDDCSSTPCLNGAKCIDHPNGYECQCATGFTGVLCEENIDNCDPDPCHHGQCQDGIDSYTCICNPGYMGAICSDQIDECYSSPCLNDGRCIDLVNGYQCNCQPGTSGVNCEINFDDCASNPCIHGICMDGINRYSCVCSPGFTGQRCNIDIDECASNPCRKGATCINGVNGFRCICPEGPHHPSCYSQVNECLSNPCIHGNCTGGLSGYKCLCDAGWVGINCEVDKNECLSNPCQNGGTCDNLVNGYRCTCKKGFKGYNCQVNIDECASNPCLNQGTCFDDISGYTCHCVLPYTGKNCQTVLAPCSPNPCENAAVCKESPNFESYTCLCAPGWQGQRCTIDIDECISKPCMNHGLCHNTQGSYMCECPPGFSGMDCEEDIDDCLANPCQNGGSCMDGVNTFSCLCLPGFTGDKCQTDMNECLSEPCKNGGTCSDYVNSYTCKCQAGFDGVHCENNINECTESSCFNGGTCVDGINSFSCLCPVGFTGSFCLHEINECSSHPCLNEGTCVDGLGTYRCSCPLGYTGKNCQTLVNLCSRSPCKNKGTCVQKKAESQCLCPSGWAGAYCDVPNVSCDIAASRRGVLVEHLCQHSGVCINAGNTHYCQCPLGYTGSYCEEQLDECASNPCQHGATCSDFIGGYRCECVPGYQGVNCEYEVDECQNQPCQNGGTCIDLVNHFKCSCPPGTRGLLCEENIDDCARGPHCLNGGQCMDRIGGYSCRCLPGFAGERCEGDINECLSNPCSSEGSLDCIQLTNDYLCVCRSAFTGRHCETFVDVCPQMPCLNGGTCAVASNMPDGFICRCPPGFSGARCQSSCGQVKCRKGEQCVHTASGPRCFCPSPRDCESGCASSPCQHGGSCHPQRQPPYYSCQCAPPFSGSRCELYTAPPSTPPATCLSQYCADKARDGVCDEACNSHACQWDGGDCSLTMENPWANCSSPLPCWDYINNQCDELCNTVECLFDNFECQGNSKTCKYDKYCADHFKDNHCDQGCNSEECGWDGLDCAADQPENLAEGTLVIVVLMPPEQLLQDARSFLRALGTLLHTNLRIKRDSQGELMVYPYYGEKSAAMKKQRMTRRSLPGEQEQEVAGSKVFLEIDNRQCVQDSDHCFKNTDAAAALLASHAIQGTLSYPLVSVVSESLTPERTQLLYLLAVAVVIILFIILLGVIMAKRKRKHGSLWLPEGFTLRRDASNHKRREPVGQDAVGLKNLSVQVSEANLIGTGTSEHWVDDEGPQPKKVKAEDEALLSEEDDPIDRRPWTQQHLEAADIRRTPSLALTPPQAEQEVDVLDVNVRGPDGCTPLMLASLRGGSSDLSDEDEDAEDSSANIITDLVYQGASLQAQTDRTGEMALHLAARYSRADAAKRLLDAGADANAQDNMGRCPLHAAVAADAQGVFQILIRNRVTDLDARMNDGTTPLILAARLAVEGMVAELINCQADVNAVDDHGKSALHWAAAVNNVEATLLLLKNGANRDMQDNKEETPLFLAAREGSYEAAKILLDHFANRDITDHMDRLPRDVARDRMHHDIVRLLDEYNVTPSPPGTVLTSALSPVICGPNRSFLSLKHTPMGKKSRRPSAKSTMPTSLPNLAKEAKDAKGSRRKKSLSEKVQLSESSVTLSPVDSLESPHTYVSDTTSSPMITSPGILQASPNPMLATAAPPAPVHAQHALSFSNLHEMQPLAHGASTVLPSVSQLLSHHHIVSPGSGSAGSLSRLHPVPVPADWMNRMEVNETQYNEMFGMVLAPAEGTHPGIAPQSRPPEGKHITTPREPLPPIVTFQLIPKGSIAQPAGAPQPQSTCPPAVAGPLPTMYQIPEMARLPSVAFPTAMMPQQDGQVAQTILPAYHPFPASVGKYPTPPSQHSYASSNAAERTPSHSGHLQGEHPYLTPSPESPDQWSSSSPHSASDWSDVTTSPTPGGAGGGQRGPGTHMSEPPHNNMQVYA
T1 sequence (Q99466 24-2003): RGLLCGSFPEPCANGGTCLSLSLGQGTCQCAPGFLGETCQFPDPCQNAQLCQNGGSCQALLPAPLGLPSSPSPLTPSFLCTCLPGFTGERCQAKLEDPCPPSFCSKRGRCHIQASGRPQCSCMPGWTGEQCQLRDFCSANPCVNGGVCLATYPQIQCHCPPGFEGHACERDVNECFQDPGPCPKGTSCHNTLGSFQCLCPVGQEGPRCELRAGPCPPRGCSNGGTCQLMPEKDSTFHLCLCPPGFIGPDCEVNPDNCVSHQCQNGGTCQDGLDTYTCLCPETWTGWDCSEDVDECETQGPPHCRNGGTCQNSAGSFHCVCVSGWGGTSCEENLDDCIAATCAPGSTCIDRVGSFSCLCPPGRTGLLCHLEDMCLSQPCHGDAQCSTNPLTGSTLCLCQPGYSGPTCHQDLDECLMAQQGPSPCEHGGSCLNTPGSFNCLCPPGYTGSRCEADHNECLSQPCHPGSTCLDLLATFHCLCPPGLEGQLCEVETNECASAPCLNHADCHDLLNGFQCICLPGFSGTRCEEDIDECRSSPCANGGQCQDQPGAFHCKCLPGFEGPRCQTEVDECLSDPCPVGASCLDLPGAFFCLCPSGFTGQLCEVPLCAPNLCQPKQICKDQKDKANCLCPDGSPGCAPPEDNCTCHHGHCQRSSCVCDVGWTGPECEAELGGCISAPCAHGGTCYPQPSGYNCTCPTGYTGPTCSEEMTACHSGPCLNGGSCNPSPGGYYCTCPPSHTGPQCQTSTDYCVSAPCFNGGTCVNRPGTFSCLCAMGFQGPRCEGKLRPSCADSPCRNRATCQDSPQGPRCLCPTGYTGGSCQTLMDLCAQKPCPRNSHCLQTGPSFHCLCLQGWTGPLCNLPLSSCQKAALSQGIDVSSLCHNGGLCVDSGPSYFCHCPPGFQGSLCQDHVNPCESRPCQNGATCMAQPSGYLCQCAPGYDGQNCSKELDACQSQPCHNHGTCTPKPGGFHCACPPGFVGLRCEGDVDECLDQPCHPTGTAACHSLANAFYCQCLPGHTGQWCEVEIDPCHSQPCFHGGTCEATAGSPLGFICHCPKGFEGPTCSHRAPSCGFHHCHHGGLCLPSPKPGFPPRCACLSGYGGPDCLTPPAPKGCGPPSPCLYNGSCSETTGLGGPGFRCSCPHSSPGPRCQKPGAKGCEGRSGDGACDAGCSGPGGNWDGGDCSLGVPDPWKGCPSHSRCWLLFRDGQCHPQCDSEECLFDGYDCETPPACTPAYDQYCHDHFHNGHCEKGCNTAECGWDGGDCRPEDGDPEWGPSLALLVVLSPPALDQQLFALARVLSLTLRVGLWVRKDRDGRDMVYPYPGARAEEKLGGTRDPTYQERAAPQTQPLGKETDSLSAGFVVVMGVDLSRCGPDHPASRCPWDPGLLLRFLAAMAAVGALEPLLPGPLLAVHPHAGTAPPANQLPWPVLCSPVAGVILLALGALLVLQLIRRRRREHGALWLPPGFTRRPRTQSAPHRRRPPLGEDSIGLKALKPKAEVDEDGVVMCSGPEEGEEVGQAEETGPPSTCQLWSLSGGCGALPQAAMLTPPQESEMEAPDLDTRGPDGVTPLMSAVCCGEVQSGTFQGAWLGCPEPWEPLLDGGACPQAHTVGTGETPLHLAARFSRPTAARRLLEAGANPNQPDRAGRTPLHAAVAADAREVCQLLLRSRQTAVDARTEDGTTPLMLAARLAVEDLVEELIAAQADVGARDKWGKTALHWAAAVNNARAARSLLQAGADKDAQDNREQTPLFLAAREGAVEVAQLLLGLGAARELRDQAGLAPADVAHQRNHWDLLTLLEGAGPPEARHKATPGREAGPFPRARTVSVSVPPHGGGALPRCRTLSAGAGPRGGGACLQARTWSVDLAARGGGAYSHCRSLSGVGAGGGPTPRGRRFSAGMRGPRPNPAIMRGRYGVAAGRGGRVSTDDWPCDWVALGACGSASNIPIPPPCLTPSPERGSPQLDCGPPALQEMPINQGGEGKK

- binding to full-length human Notch4 (FACS) (human Notch4): does not bind significantly
- FACS binding to hNotch2 in the absence of EGF 10 (missing amino acids 375-412) [2]: does not
Substance: 59R1: human IgG2 antibody binding Notch2 and Notch3; heavy and light chain SEQ ID NO:16 and 18; ATCC PTA-9547
- amino acids necessary for binding to hNotch 2 [1]: histidine 385, alanine 388, and leucine 389
- effect on down-regulation of angiopoietin-1 and angiopoietin-2 in the stroma of the T1 tumor ([3]; absence of estrogen treatment (T1 ne)): abrogated
- angiopoietin-1 (angpt1) expression in stroma (TaqMan) ([3]; breast cancer models): down-regulated in the stroma of a number of the breast cancer models
- angiopoietin-2 (angpt2) expression in stroma (TaqMan) ([3]; breast cancer models): down-regulated in the stroma of a number of the breast cancer models
- notch3 expression in stroma (TaqMan) [3, 4]: down-regulated
- rgs5 expression in stroma (TaqMan) [3, 4]: down-regulated
- angpt1 and angpt2 expression in the stroma of the T1 model ([3]; estrogen treatment used (T1 e)): down-regulated
- heyl expression in stroma (TaqMan) ([3]; xenograft models, relative to control): downregulated in the stroma of each of the xenograft models except B34
- Fold 1416286_at (Rgs4) (stroma of T1 tumors): −1.13
- Fold 1417466_at (Rgs5) (stroma of T1 tumors): −1.99
- Fold 1417714_x_at (Hba-al/Hba-a2) (stroma of T1 tumors): 1.42
- Fold 1418829_a_at (Eno2) (stroma of T1 tumors): 1.29
- Fold 1419302_at (Heyl) (stroma of T1 tumors): −1.07
- Fold 1420872_at (Gucy1b3) (stroma of T1 tumors): −1.01
- Fold 1420941_at (Rgs5) (stroma of T1 tumors): −1.97
- Fold 1420942_s_at (Rgs5) (stroma of T1 tumors): −1.18
- Fold 1421964_at (Notch3) (stroma of T1 tumors): −1.01
- Fold 1422789_at (Aldh1a2) (stroma of T1 tumors): −2.16
- Fold 1428361_x_at (Hba-al/Hba-a2) (stroma of T1 tumors): 1.73
- Fold 1434141_at (Gucy1a3) (stroma of T1 tumors): 1.20
- Fold 1449280_at (Esm1) (stroma of T1 tumors): 1.18
- Fold 1449632_s_at (Fkbp10) (stroma of T1 tumors): 1.07
- Fold 1451501_a_at (Ghr) (stroma of T1 tumors): −1.12
- Fold 1452590_a_at (Plac9) (stroma of T1 tumors): 1.20
- Fold 1459713_s_at (Tmem16a) (stroma of T1 tumors): −2.14

Substance: 59R5: human antibody that specifically binds human Notch 2 and human Notch 3; heavy and light chain SEQ ID NO:49 and 18; ATCC PTA-10170
- ligand-induced activation of murine Notch2 receptor signaling (murine Notch2): blocked
- ligand-induced activation of murine Notch3 receptor signaling (murine Notch3): blocked
